2 compounds from patent US20100280015A1 (priority 2007, published 2010) can be followed below.

Structures can show the parent of a compound that is named as a salt.

The target in this assay is α7-subtype of nicotinic receptors (Rattus norvegicus, UniProt Q05941). Briefly: biochemical. The format is binding.
Chain of α7-subtype of nicotinic receptors (Q05941 23-502): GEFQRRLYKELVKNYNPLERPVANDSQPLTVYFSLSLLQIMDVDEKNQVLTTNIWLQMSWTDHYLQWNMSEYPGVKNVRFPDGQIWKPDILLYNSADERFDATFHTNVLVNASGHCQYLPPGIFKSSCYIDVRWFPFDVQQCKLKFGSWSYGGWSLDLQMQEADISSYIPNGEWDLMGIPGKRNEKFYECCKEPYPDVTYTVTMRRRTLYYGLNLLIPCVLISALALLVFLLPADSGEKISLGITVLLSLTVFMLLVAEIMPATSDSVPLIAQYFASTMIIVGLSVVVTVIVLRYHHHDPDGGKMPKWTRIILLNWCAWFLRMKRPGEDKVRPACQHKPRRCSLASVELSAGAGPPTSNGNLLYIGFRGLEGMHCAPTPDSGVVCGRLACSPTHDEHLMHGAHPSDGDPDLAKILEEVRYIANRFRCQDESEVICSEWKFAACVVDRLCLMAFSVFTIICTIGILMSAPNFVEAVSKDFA

For `c1ccc(Oc2ccccc2-c2nnc(N3CCN4CCC3CC4)o2)cc1` [Compound A1, 4-[5-(2-Phenoxy-phenyl)-[1,3,4]oxadiazol-2-yl]-1,4-diaza-bicyclo[3.2.2]nonane fumaric acid salt], the IC50 was < 100 nM.

As for `c1ccc(Oc2cccc(-c3nnc(N4CCN5CCC4CC5)o3)c2)cc1` [Compound A2, 4-[5-(3-Phenoxy-phenyl)-[1,3,4]oxadiazol-2-yl]-1,4-diaza-bicyclo[3.2.2]nonane fumaric acid salt], the half-maximal inhibitory concentration (IC50) was < 1000 nM.

Usually IC50 stands for the concentration that inhibits the measured activity by half. A low value points to greater potency.
